Usually Kd stands for the concentration at which binding is half-saturated. Broadly, the IC50 is the concentration that inhibits the measured activity by half.

Like-named read-outs stand apart in the source and are kept apart here.

Experiment [1] has as its system A549 cells. The experiment in a line: Inhibition of LasB-dependent cytotoxicity of P. aeruginosa PAO1 culture supernatant on A549 cells (MTT). Type of experiment: cell-based, human. The note with it: 1 μM compound, 10% (v/v) PAO1 supernatant. As to the method:
Next, we set out to analyze the ability of the dual inhibitor 12 and the individual treatment or combination of galactoside 1 and thiol 2 to reduce LasB-dependent cytotoxicity from P. aeruginosa PAO1 culture supernatant on A549 cells. None of the investigated compounds influenced A549 cell viability at 100 μM in the absence of bacterial culture supernatant (Fig. S4 ^†). […]
In vitro evaluation of 12 and a combination of 1 and 2 using P. aeruginosa culture supernatant and A549 cells in a cell viability assay
The A549 cell line, derived from human lung adenocarcinoma, was grown in Dulbecco's Modified Eagle Medium (DMEM) supplemented with 10% Fetal Bovine Serum (FBS) and 1% penicillin-streptomycin. The cells were cultured following standard protocols for cell […]
To prepare the bacterial culture supernatant, individual flasks containing 15 mL of lysogeny broth (LB) culture medium were inoculated with PAO1 or PAO1 ΔlasB strains. Culture flasks were placed on a shaker and incubated at 37 °C and 180 rpm overnight for 18 hours. Following incubation, the bacterial cultures were subjected to centrifugation at 4 °C and 5000 rpm for […]
10 min, facilitating the separation of bacterial cells from the supernatant. The latter was filtered through a 0.22 µm sterile filter and stored at –80 °C until further use.
In a flat bottom 96-well plate (Corning™ Costar™), each well was seeded with 2.5–3.5*10 3 cells in 100 µL DMEM/FCS and then incubated at a temperature of 37 °C with 5% CO2 for 24 hours. Then, compounds 12 and 1 combined with 2 in concentrations of 100 µM, 10 µM, and 1 µM were mixed with 10% (v/v) of culture supernatant of P. aeruginosa PAO1 (DSM 22644, ATCC 15692) in DMEM/FCS. To minimize the potential negative effect of DMSO, the compound was initially dissolved in 99.9% DMSO, and a final assay concentration of 0.5% DMSO was applied. Additionally, the cells were exposed to 10% (v/v) PAO1 ΔlasB culture supernatant to analyze the effect caused by LasB, while DMEM/FCS without any treatment served as a control. The plates were then incubated at 37 °C with 5% CO2 for 24 hours before conducting the MTT assay.
To assess cell viability, the medium in the well plates was aspirated and a single wash was performed using 100 µL of phosphate buffered saline, pH 7.4 (PBS). A solution of 5 mg MTT (3-(4,5-dimethylthiazol-2-yl)-2,5-diphenyl tetrazolium bromide) per mL PBS was prepared and diluted to a concentration of 10% (v/v) in DMEM/FCS. Subsequently, 100 µL of this MTT solution was added to each well, and the plates were incubated at 37 °C for 3 hours with 5%
CO2. After incubation, the MTT solution was carefully removed, and the formazan crystals were dissolved by adding 150 µL of lysis solution (250 mL DMSO, 25 g SDS, and 1.25 mL AcOH) to each well. The plates were then incubated for an additional 30 min at 37 °C and then, the UV absorbance was measured using a PHERAstar microplate reader. The test samples were read at a wavelength of 550 nm, while the blank was read at 620 nm. At last, the data were statistically analyzed and presented graphically using GraphPad Prism 9 (Figure S4 and S5).
Evaluation of compounds 1, 2 and 12 in inhibiting LecA adhesion to A549 cells via […]
The A549 cell line were cultured following the protocols for cell maintenance described above.
In a flat-bottom cell culture black 96-well plate (Greiner Bio-One, #Cat 655090) each well was seeded with 1*104 cells in 100 µL DMEM/FCS and subsequently, incubated overnight at 37 °C with 5% CO2. […]

For experiment [2], the system named is LecA-FITC binding to human A549 cells. The experiment in a line: Inhibition of LecA-FITC adhesion to A549 cells by fluorescence microscopy. The note with it: concentrations tested 1-100 µM, 10 μM LecA-FITC, 4 °C, 30 min. In kind it is cell-based. As to the method: LecA-mediated cell adhesion is crucial for the initial infection and host-cell invasion of P. aeruginosa. Therefore, compounds 1 and 2, a combination of 1+2 and the dual inhibitor 12 were assessed for their ability to inhibit LecA-binding to human A549 cells. 10 μM of LecA-FITC and different concentrations of the respective compounds were incubated at 4 °C for 30 min with confluent A549 cells.
10 min, facilitating the separation of bacterial cells from the supernatant. The latter was filtered through a 0.22 µm sterile filter and stored at –80 °C until further use. […]
CO2. […] The plates were then incubated for an additional 30 min at 37 °C and then, the UV absorbance was measured using a PHERAstar microplate reader. The test samples were read at a wavelength of 550 nm, while the blank was read at 620 nm. At last, the data were statistically analyzed and presented graphically using GraphPad Prism 9 (Figure S4 and S5). […]
have any negative effects. The plate was then incubated at 4 °C for 30 min and wells were washed 5 times with PBS prior to imaging via fluorescence microscopy.
Fluorescence image acquisition, processing, and quantification
Fluorescence images were captured using an inverted fluorescence microscope (Leica DMi8) equipped with a 20x objective (HC PL APO CS2 20x/0.75 IMM UV), an FITC filter cube (EX: […]

In experiment [3] the target is T1, LecA (Pseudomonas aeruginosa, UniProt Q05097).
T1 construct: made in house; host or cells: E. coli (plasmid pET25-pail)
T1 sequence (Q05097 whole entry): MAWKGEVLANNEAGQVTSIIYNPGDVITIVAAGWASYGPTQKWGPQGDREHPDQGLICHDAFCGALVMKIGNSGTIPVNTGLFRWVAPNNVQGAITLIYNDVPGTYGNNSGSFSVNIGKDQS
Kind of experiment: Surface plasmon resonance direct LecA binding assay (immobilized LecA). Details: species or system P. aeruginosa. To be noted: for time to reach equilibrium binding with immobilized LecA / k a / k d: SPR; for k a / k d: immobilized LecA. The text has this: Therefore, we measured the LecA affinity of thiol derivatives 17, 18, 24 and 25 and disulfides 26a, 26b and 27 using surface plasmon resonance (SPR) with LecA covalently immobilized on a sensor chip via amide coupling (Fig. 5 and Table 1). […] Thiols 17, 18, 24 and 25 reached equilibrium binding within 60 s of interaction with immobilized LecA, followed by their dissociation with moderate off-rates. […] Due to the very small off-rates for 26a, 26b and 27, these values have been calculated based on the response at […] of the injected compound and monitoring their dissociation for 30 min (Fig. S2 ^†). The observed very tight binding to immobilized LecA required optimization of the protein surface regeneration procedure. Effective conditions were identified as one injection of 50 mm isopropyl β-D-thiogalactoside in the running buffer, followed by one injection of 20 mm EDTA disodium salt in water. The regenerated chip surface was controlled using an injection of 1 to ensure that the activity of LecA was maintained.
Surface plasmon resonance direct LecA binding assay
SPR experiments were performed on a Reichert 2-channel SPR SR7500DC (Reichert Technologies Life Sciences, Buffalo, NY, USA) at 25 °C. For LecA immobilization, the surface of a HC1000M sensor chip (XanTec bioanalytics GmbH, Düsseldorf, Germany) was preequilibrated with borate buffer (1 M NaCl, 0.1 M sodium borate pH 9.0), followed by activation of the polycarboxylate hydrogel with 0.2 M N-hydroxysuccinimide (NHS) and 0.4 M 1-ethyl-3-(3-dimethylaminopropyl)carbodiimide hydrochloride (EDC‧HCl) in MilliQ water in both channels for 240 s (flow rate 10 μL/min) until the binding response reached 1200 RU.
Then, LecA (100 μg/mL) in 10 mM sodium acetate pH 3.6 was injected on the activated chip surface of one channel (injection time 420 s, flow rate 10 μL/min) and 6000 RU of LecA were immobilized. Unreacted NHS esters in both channels were blocked with 1 M ethanolamine hydrochloride in MilliQ water pH 8.5 (injection time 360 s, flow rate 10 μL/min).
Test compound stock solutions were prepared in DMSO (20 mM stocks for monovalent LecA inhibitors, 20 µM stocks for divalent LecA inhibitors) and were subsequently diluted in 10 mM phosphate buffer (pH 7.4, 2.7 mM KCl, 137 mM NaCl, 100 μM CaCl2) to obtain solutions with […]
Monovalent inhibitors 17, 18, 24 and 25 were injected for 120 s (flow rate 50 μL/min) at concentrations ranging from 0.39–100 µM. Divalent inhibitors 26a, 26b and 27 were injected for 120 s (flow rate 50 μL/min) at concentrations 50–350 nM. The chip surface was regenerated after each inhibitor injection by one injection of 50 mM IPTG in running buffer (10 mM phosphate buffer, pH 7.4, 2.7 mM KCl, 137 mM NaCl, 100 μM CaCl2, 2% DMSO) followed by one injection 20 mM EDTA disodium salt in MilliQ water, and then followed by three injections of the running buffer (injection time 120 s, flow rate 50 μL/min). 100 µM pNP-Gal (1) in running buffer was injected before each analyte to monitor and ensure chip regeneration and […]
Affinity/equilibrium analysis was performed for 1 on the same chip. A stock solution of 1 (10 mM in PBS/CaCl2 buffer) was prepared, then diluted to the required concentrations in running buffer and injected at 1.56–400 µM (injection time 60 s, flow rate 50 μL/min) without regeneration steps. Data analysis was performed using TraceDrawer software (Ridgeview Instruments) using a 1:1 binding model to fit the experimental data. Spikes at the end of the injections were removed in TraceDrawer during the data analysis.

Experiment [4] concerns the target T2, LasB (Pseudomonas aeruginosa, UniProt Q02RJ6).
T2 construct: P. aeruginosa PA14 culture supernatant; made in house; host or cells: native secreted enzyme purified from P. aeruginosa PA14 culture supernatant (not recombinant)
Kind of experiment: FRET-based in vitro LasB inhibition (proteolysis) assay. Type of experiment: biochemical, P. aeruginosa PA14. As to the method:
The LasB activity of the thiol derivatives 11, 12, 17, 18, 24 and 25 was tested using a functional FRET-based in vitro proteolysis assay (Fig. 4A). […]
Expression and purification of LasB and LecA
LecA was expressed recombinantly using E. coli pET25-pail, whereas LasB was isolated from P. aeruginosa PA14 culture supernatant as described previously. 1,2 […]
In vitro inhibition assay for LasB
The in vitro inhibition assay was performed as described previously,2 using purified LasB (final concentration 0.3 nM), the fluorogenic substrate 2-aminobenzoyl-Ala-Gly-Leu-Ala-4-nitrobenzylamide (purchased from Peptides International (Louisville, KY, USA) or Vivitide, LLC (Gardner, MA, USA), final concentration 150 µM)) in assay buffer (50 mM Tris, pH 7.2, 2.5 mM CaCl2, 0.075% Pluronic F-127, 5% DMSO). Fluorescence was measured using a CLARIOstar plate reader (BMG Labtech, Ortenberg, Germany). IC50 values were calculated using GraphPad Prism 8 (GraphPad Software, San Diego, CA, USA) from at least three independent experiments performed in duplicate.

The target of experiment [5] is T2, LasB. To be noted: previously observed activities of reported inhibitors; cited from earlier work.

T2 sequence (Q02RJ6 198-498): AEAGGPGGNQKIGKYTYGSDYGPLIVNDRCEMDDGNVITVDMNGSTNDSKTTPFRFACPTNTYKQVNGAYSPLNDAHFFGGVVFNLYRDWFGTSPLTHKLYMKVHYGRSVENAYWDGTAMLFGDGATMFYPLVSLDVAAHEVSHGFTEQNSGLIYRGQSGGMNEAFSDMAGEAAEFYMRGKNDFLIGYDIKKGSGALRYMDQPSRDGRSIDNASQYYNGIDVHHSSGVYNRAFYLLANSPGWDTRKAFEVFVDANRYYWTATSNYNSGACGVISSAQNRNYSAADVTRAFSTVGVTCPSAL

Regarding `Cc1ccc(NC(=O)C(S)CC(C)C)cc1` (centres unmarked) [Compound 2, reference compound], the “A549 cell viability under PAO1 culture supernatant” value in experiment [1] was “neither 1 nor 2 nor their combination had any effect”. Further, the “inhibition of binding of LecA-FITC to A549 cells” value in experiment [2] is on record as “failed to do so”.

As for `O=C(Nc1ccc(S[C@@H]2O[C@H](CO)[C@H](O)[C@H](O)[C@H]2O)cc1)[C@@H](S)Cc1ccccc1` [Compound 24], in experiment [3], the equilibrium dissociation constant (Kd) is 840 ± 160 nM, the “time to reach equilibrium binding with immobilized LecA” value (“time to reach equilibrium binding” for short) is recorded as at most 60 s, the k a is listed as 0.88 ± 0.23 ×10^4 M^−1 s^−1 and the k d was 72 ± 5 ×10^−4 s^−1. In experiment [4], the IC50 was 220 nM.

For `CC(C)C[C@H](S)C(=O)Nc1ccc(S[C@@H]2O[C@H](CO)[C@H](O)[C@H](O)[C@H]2O)cc1` [Compound 25], in experiment [3], the Kd came out at 1000 ± 590 nM, the “time to reach equilibrium binding” value was at most 60 s, the k a is listed as 0.90 ± 0.31 ×10^4 M^−1 s^−1 and the k d is on record as 85 ± 2 ×10^−4 s^−1. Besides, inhibition in experiment [4] was half-maximal at 770 nM (IC50).

With `CC(C)C[C@@H](S)C(=O)Nc1ccc(S[C@@H]2O[C@H](CO)[C@H](O)[C@H](O)[C@H]2O)cc1` [Compound 18], in experiment [3], binding was characterised by a dissociation constant (Kd) of 630 ± 290 nM, the “time to reach equilibrium binding” value was at most 60 s, the k a is 1.41 ± 0.47 ×10^4 M^−1 s^−1 and the k d is on record as 82 ± 11 ×10^−4 s^−1. In experiment [4], this compound yielded an IC50 of 510 nM.

Take `O=C(Nc1ccccc1)C(S)Cc1ccccc1` (centres unmarked) [Compound 3]: the IC50 in experiment [5] was 1200 nM.

Take `O=C(Nc1ccc(S[C@@H]2O[C@H](CO)[C@H](O)[C@H](O)[C@H]2O)cc1)[C@H](S)Cc1ccccc1` [Compound 17]: in experiment [3], binding was put at a Kd of 1300 ± 540 nM, the “time to reach equilibrium binding” value is reported as at most 60 s, the k a is 0.71 ± 0.14 ×10^4 M^−1 s^−1 and the k d is reported as 86 ± 20 ×10^−4 s^−1. Besides, in experiment [4], the IC50 worked out at 730 nM.

The values above are taken from paper PMC11339798, “Dual inhibitors of Pseudomonas aeruginosa virulence factors LecA and LasB” (Chemical Science, 2024).
